{"source": "patent US20160101076A1", "about": "“Use of Sumoylation Inhibitors for Treating Cancer” (priority 2013, published 2016)", "key": {"BT20 xenografts [1]": {"test_system": "BT20 xenografts", "test": "BT20 xenografts, animals gavaged", "type": "in vivo", "settings": "BT20 xenografts in nude mice, animals gavaged vs vehicle; FIG. 8B", "excerpt": "(§1) FIGS. 8A-8D. SUMO Inhibitors Repressed Outgrowth of Xenografts. FIG. 8A. […] FIG. 8B. Tumor-free survival of nude mice (n=5 per group) inoculated with BT20 cells with animals gavaged with AA vs. vehicle. FIG. 8C. IOWA-1T cells were pre-treated with anacardic acid (AA) or vehicle and mice were followed until requiring euthanasia due to tumor size (Overall Survival). […] FIG. 8D. Nude mice were inoculated with 1×10^6, 5×10^5, or 2.5×10^5 IOWA-1T cells and animals were gavaged with either vehicle or AA; vehicle-gavaged mice developed tumors in 5, 10 and 12 days, respectively.\n(§2) To address the effects of GA and AA on tumor initiation, BT20 cells were pretreated with GA or AA compared to vehicle prior to inoculation of xenografts in nude mice. As noted in FIG. 8A, pretreatment of the cells repressed the formation of tumor xenografts, whereas, vehicle treated cells formed xenografts with a median time of 8 weeks. […] We created a breast carcinoma cell line (IOWA-1T) from the basal tumor-derived cells used in FIG. 6A. The IOWA-1T cell line rapidly forms locally advanced tumors in nude mice. Identical experiments using the IOWA-1T basal cell line confirmed that either pre-treating the cancer cells or gavaging animals with AA repressed tumor initiation of xenografts (FIGS. 8C and 8D). […]"}, "[2]": {"test_system": "Colorectal cancer stem cells (CSC)", "test": "Stem cell markers in primary colorectal cancer stem cells (qPCR, Western blot)", "type": "cell-based", "settings": "10 μM, 48 hours", "method": "[…]: qPCR, CD44 downregulation after treatment of colorectal CSC with anacardic acid, 48 h. […]: qPCR, ALCAM (activated leucocyte cell adhesion molecule) after treatment of colorectal CSC with anacardic acid, 48 h. FIG. 17C: qPCR, EPCAM (epithelial cell adhesion molecule) after treatment of colorectal CSC with anacardic acid, 48 h. FIG. 17D: Western blot, CD44 downregulation after treatment of colorectal CSC with anacardic acid, 48 h.\nInformed consent primary colorectal tumor material was obtained during operation and was transferred to lab. Colorectal cancer stem cells (CSC) were isolated accordingly Cammareri et al, 2008 and treated with 10 μM anacardic acid within 48 hours."}, "IOWA-1T xenografts [3]": {"test_system": "IOWA-1T xenografts", "test": "IOWA-1T xenografts from pre-treated cells", "type": "in vivo", "settings": "IOWA-1T cells pre-treated vs vehicle, nude mice; p=0.002; FIG. 8C", "excerpt": "as §1\n(§3) To address the effects of GA and AA on tumor initiation, BT20 cells were pretreated with GA or AA compared to vehicle prior to inoculation of xenografts in nude mice. As noted in FIG. 8A, pretreatment of the cells repressed the formation of tumor xenografts, whereas, vehicle treated cells formed xenografts with a median time of 8 weeks. […] We created a breast carcinoma cell line (IOWA-1T) from the basal tumor-derived cells used in FIG. 6A. The IOWA-1T cell line rapidly forms locally advanced tumors in nude mice. Identical experiments using the IOWA-1T basal cell line confirmed that either pre-treating the cancer cells or gavaging animals with AA repressed tumor initiation of xenografts (FIGS. 8C and 8D).\n(§4) Statistical analysis was performed using the two-sided Student's T-test for continuous variables. […]"}, "[4]": {"test_system": "cells derived from a primary basal cancer", "test": "CD44 Western blot and CD44+/CD24-/low FACS in cells from a primary basal breast cancer", "type": "cell-based, human", "settings": "for CD44 expression by Western blot: cells derived from a primary basal cancer, FIG. 6A; for CD44+/hi/CD24-/low CSC population: cells harvested from primary basal breast tumor refractory to chemotherapy, treated in vitro, FACS FIG. 6A", "method": "In addition, cells from a primary basal breast cancer were treated in vitro in parallel. The cancer was from a patient with locally advanced breast cancer that was refractory to conventional chemotherapy. Remarkably, treatment with GA or AA cleared the CD44^+/hi/CD24^−/low CSC population from the cells harvested from the primary tumor (FIG. 6A, last panel). By contrast, GA/AA treatment of MCF-10A cells, a normal breast cell line model, had no effect on CD44 expression and had no effect on the percentage of cells expressing stem cell markers.\nThe human breast cancer cell lines (MCF-7, SKBR-3, BT-20, BT-549, MCF-10A) were obtained from American Type Culture Collection. sKD-C cells were subcloned from parental MCF-7 cells with stable knockdown of TFAP2C as described (Cyr et al., 2014). ER<-positive tumors and the basal cancer tumor were obtained from surgical resection specimens. Cell suspensions were prepared with gentle collagenase/hyaluronidase (Stemcells) (Ponti et al., 2005). A new cell line was established from the basal tumor cells, called IOWA-1T (manuscript in preparation).\n(§5) Western blots were performed as previously described (Cyr et al., 2014; Kulak et al., 2013). For immunoprecipitations anti-TFAP2A, anti-GFP antibody (Life Technologies) or IgG (#sc-2025, Santa Cruz Biotechnology) were cross-linked with Dynabeads protein A (Life Technologies). MCF7 protein was incubated with Dynabeads protein A-Abs complex, protein complexes were washed with DPBS (Gibco) with 0.01% Tween (Research Products International Corp.), and eluted with SDS loading buffer.\n(§6) Cells were plated ([…]/10 cm2) and treated with 10 μM gingolic or anacardic acid (Sigma) for 2-4 days and collected for qPCR, Western blot and FACS analysis.\nFACS analysis was performed as previously described (Roederer and Hardy, 2001)."}, "[5]": {"test_system": "SUMO-conjugated proteins, SUMO-conjugated form of TFAP2A in BT549 cells", "test": "Western blot of SUMO-conjugated proteins in BT549 cells", "type": "cell-based, human", "settings": "vs vehicle", "method": "FIG. 16. Anacardic Acid Inhibits SUMO-conjugated Proteins. Western blots were performed on protein extracts of BT549 cells treated with vehicle (V) or anacardic acid (AA) and reacted with antibodies for SUMO1, TFAP2A or GAPDH, as indicated. Equal amounts of protein were loaded in each lane. […] GAPDH control indicates equal loading of protein. MW indicates molecular weight markers.\nas §5, §6"}, "IOWA-1T xenografts [6]": {"test_system": "IOWA-1T xenografts", "test": "IOWA-1T xenografts, animals gavaged", "type": "in vivo", "settings": "nude mice inoculated with 1×10^6, 5×10^5 or 2.5×10^5 IOWA-1T cells, gavaged vs vehicle; p=0.025; FIG. 8D", "excerpt": "as §1, §3, §4"}, "BT20 xenografts [7]": {"test_system": "BT20 xenografts", "test": "BT20 xenografts from cells pretreated before inoculation", "type": "in vivo", "settings": "BT20 cells pretreated for 48 hours prior to inoculation in nude mice; FIG. 8A", "excerpt": "as §1, §2"}}, "data": [{"smiles": "CCCCCCCCCCCCCCCc1cccc(O)c1C(=O)O", "note": "[AA, Anacardic acid (C15:0)]", "values": [{"measurement": "tumor formation (tumor-free survival)", "setting": "BT20 xenografts [1]", "value": "failed to form tumors"}, {"measurement": "CD44 by qPCR", "setting": "[2]; FIG. 17A", "value": "down regulated"}, {"measurement": "ALCAM by qPCR", "setting": "[2]; FIG. 17B", "value": "down regulated"}, {"measurement": "EPCAM by qPCR", "setting": "[2]; FIG. 17C", "value": "down regulated"}, {"measurement": "CD44 by Western blot", "setting": "[2]; FIG. 17D", "value": "reduction"}, {"measurement": "tumor formation (overall survival)", "setting": "IOWA-1T xenografts [3]", "value": "inhibited tumor formation"}, {"measurement": "CD44 expression by Western blot", "setting": "[4]", "value": "inhibited"}, {"measurement": "CD44+/hi/CD24-/low CSC population", "setting": "[4]", "value": "cleared"}, {"measurement": "SUMO conjugated form of TFAP2A", "setting": "[5]; Western blot FIG. 16", "value": "inhibited"}, {"measurement": "overall expression of TFAP2A", "setting": "[5]; Western blot FIG. 16", "value": "decrease slightly"}, {"measurement": "SUMO conjugation of proteins globally", "setting": "[5]; Western blot SUMO1 antibody, FIG. 16", "value": "inhibited"}, {"measurement": "tumor formation", "setting": "IOWA-1T xenografts [6]", "value": "failed to form tumors"}, {"measurement": "formation of tumor xenografts (tumor free survival)", "setting": "BT20 xenografts [7]", "value": "repressed"}]}, {"smiles": "CCCCCC/C=C\\CCCCCCCc1cccc(O)c1C(=O)O", "note": "[GA, (Z)-6-(Pentadec-8-enyl)-2-hydroxybenzoic acid]", "values": [{"measurement": "CD44 expression by Western blot", "setting": "[4]", "value": "inhibited"}, {"measurement": "CD44+/hi/CD24-/low CSC population", "setting": "[4]", "value": "cleared"}, {"measurement": "formation of tumor xenografts (tumor free survival)", "setting": "BT20 xenografts [7]", "value": "repressed"}]}]}
